Data as given in ChEMBL document CHEMBL1151757, “Synthesis, radiosynthesis, and biological evaluation of fluorine-18-labeled 2beta-carbo(fluoroalkoxy)-3beta-(3'-((Z)-2-haloethenyl)phenyl)nortropanes: candidate radioligands for in vivo imaging of the serotonin transporter with positron emission tomography” (J Med Chem, 2008).

Tests used:
[1] = Ratio of drug uptake in occipital lobe to cerebellum in anesthetized cynomolgus monkey after 195 mins postinjection; format: ADME, organism-based, Macaca fascicularis; conditions: in vivo, 3.25 h
Thalamus [2] = assay: Drug uptake in anesthetized cynomolgus monkey brain thalamus after 105 mins postinjection; format: ADME, organism-based, Macaca fascicularis; design: unit not given here; conditions: in vivo, 1.75 h
[3] = Ratio of drug uptake in thalamus to cerebellum in anesthetized cynomolgus monkey after 27.5 mins postinjection; format: ADME, organism-based, Macaca fascicularis; conditions: in vivo
[4] = Drug uptake in anesthetized cynomolgus monkey brain occipital lobe after 35 mins postinjection; format: ADME, organism-based, Macaca fascicularis; conditions: in vivo
Caudate [5] = assay: Drug uptake in anesthetized cynomolgus monkey brain caudate after 215 mins postinjection; format: ADME, organism-based, Macaca fascicularis, Caudate nucleus; conditions: in vivo
[6] = Drug uptake in anesthetized cynomolgus monkey brain occipital lobe after 175 mins postinjection; format: ADME, organism-based, Macaca fascicularis; conditions: in vivo
[7] = Drug uptake in anesthetized cynomolgus monkey brain frontal lobe after 95 mins postinjection; format: ADME, organism-based, Macaca fascicularis; conditions: in vivo
[8] = Drug uptake in anesthetized cynomolgus monkey brain occipital lobe after 22.5 mins postinjection; format: ADME, organism-based, Macaca fascicularis; conditions: in vivo, 0.375 h
[9] = Ratio of drug uptake in medulla to cerebellum in anesthetized cynomolgus monkey after 165 mins postinjection; format: ADME, organism-based, Macaca fascicularis; conditions: in vivo, 2.75 h
[10] = Ratio of drug uptake in occipital lobe to cerebellum in anesthetized cynomolgus monkey after 185 mins postinjection; format: ADME, organism-based, Macaca fascicularis; conditions: in vivo
Medulla [11] = assay: Drug uptake in anesthetized cynomolgus monkey brain medulla after 22.5 mins postinjection; format: ADME, organism-based, Macaca fascicularis; conditions: in vivo, 0.375 h
Midbrain [12] = assay: Drug uptake in anesthetized cynomolgus monkey brain midbrain after 215 mins postinjection; format: ADME, organism-based, Macaca fascicularis; conditions: in vivo
[13] = Ratio of drug uptake in frontal lobe to cerebellum in anesthetized cynomolgus monkey after 135 mins postinjection; format: ADME, organism-based, Macaca fascicularis; conditions: in vivo, 2.25 h
[14] = Ratio of drug uptake in thalamus to cerebellum in anesthetized cynomolgus monkey after 115 mins postinjection; format: ADME, organism-based, Macaca fascicularis; conditions: in vivo
[15] = Ratio of drug uptake in putamen to cerebellum in anesthetized cynomolgus monkey after 215 mins postinjection; format: ADME, organism-based, Macaca fascicularis; conditions: in vivo
[16] = Ratio of drug uptake in midbrain to cerebellum in anesthetized cynomolgus monkey after 27.5 mins postinjection; format: ADME, organism-based, Macaca fascicularis; conditions: in vivo
Caudate [17] = assay: Drug uptake in anesthetized cynomolgus monkey brain caudate after 225 mins postinjection; format: ADME, organism-based, Macaca fascicularis, Caudate nucleus; conditions: in vivo, 3.75 h
[18] = Drug uptake in anesthetized cynomolgus monkey brain cerebellum after 0.5 mins postinjection; format: ADME, organism-based, Macaca fascicularis; conditions: in vivo
[19] = Drug uptake in anesthetized cynomolgus monkey brain occipital lobe after 95 mins postinjection; format: ADME, organism-based, Macaca fascicularis; conditions: in vivo
[20] = Drug uptake in anesthetized cynomolgus monkey brain cerebellum after 18.5 mins postinjection; format: ADME, organism-based, Macaca fascicularis; conditions: in vivo
Midbrain [21] = assay: Drug uptake in anesthetized cynomolgus monkey brain midbrain after 145 mins postinjection; format: ADME, organism-based, Macaca fascicularis; conditions: in vivo
Caudate [22] = assay: Drug uptake in anesthetized cynomolgus monkey brain caudate after 4.5 mins postinjection; format: ADME, organism-based, Macaca fascicularis, Caudate nucleus; conditions: in vivo, 0.075 h
Medulla [23] = assay: Drug uptake in anesthetized cynomolgus monkey brain medulla after 225 mins postinjection; format: ADME, organism-based, Macaca fascicularis; conditions: in vivo, 3.75 h
Putamen [24] = assay: Drug uptake in anesthetized cynomolgus monkey brain putamen after 235 mins postinjection; format: ADME, organism-based, Macaca fascicularis; conditions: in vivo
[25] = Drug uptake in anesthetized cynomolgus monkey brain cerebellum after 165 mins postinjection; format: ADME, organism-based, Macaca fascicularis; conditions: in vivo, 2.75 h
Thalamus [26] = assay: Drug uptake in anesthetized cynomolgus monkey brain thalamus after 12.5 mins postinjection; format: ADME, organism-based, Macaca fascicularis; design: unit not given here; conditions: in vivo
Midbrain [27] = assay: Drug uptake in anesthetized cynomolgus monkey brain midbrain after 65 mins postinjection; format: ADME, organism-based, Macaca fascicularis; design: unit not given here; conditions: in vivo
[28] = Ratio of drug uptake in frontal lobe to cerebellum in anesthetized cynomolgus monkey after 195 mins postinjection; format: ADME, organism-based, Macaca fascicularis; conditions: in vivo, 3.25 h
Midbrain [29] = assay: Drug uptake in anesthetized cynomolgus monkey brain midbrain after 22.5 mins postinjection; format: ADME, organism-based, Macaca fascicularis; design: unit not given here; conditions: in vivo, 0.375 h
[30] = Ratio of drug uptake in thalamus to cerebellum in anesthetized cynomolgus monkey after 195 mins postinjection; format: ADME, organism-based, Macaca fascicularis; conditions: in vivo, 3.25 h
[31] = Drug uptake in anesthetized cynomolgus monkey brain cerebellum after 35 mins postinjection; format: ADME, organism-based, Macaca fascicularis; conditions: in vivo
Pons [32] = assay: Drug uptake in anesthetized cynomolgus monkey brain pons after 45 mins postinjection; format: ADME, organism-based, Macaca fascicularis; conditions: in vivo, 0.75 h
Caudate [33] = assay: Drug uptake in anesthetized cynomolgus monkey brain caudate after 15.5 mins postinjection; format: ADME, organism-based, Macaca fascicularis, Caudate nucleus; conditions: in vivo
Putamen [34] = assay: Drug uptake in anesthetized cynomolgus monkey brain putamen after 115 mins postinjection; format: ADME, organism-based, Macaca fascicularis; design: unit not given here; conditions: in vivo
Midbrain [35] = assay: Drug uptake in anesthetized cynomolgus monkey brain midbrain after 2.5 mins postinjection; format: ADME, organism-based, Macaca fascicularis; design: unit not given here; conditions: in vivo
[36] = Drug uptake in anesthetized cynomolgus monkey brain cerebellum after 2.5 mins postinjection; format: ADME, organism-based, Macaca fascicularis; conditions: in vivo
Caudate [37] = assay: Drug uptake in anesthetized cynomolgus monkey brain caudate after 45 mins postinjection; format: ADME, organism-based, Macaca fascicularis, Caudate nucleus; conditions: in vivo, 0.75 h
[38] = Ratio of drug uptake in pons to cerebellum in anesthetized cynomolgus monkey after 95 mins postinjection; format: ADME, organism-based, Macaca fascicularis; conditions: in vivo
Putamen [39] = assay: Drug uptake in anesthetized cynomolgus monkey brain putamen after 9.5 mins postinjection; format: ADME, organism-based, Macaca fascicularis; design: unit not given here; conditions: in vivo
Pons [40] = assay: Drug uptake in anesthetized cynomolgus monkey brain pons after 6.5 mins postinjection; format: ADME, organism-based, Macaca fascicularis; conditions: in vivo
Pons [41] = assay: Drug uptake in anesthetized cynomolgus monkey brain pons after 1.5 mins postinjection; format: ADME, organism-based, Macaca fascicularis; conditions: in vivo, 0.025 h
Thalamus [42] = assay: Drug uptake in anesthetized cynomolgus monkey brain thalamus after 3.5 mins postinjection; format: ADME, organism-based, Macaca fascicularis; design: unit not given here; conditions: in vivo
[43] = Ratio of drug uptake in medulla to cerebellum in anesthetized cynomolgus monkey after 185 mins postinjection; format: ADME, organism-based, Macaca fascicularis; conditions: in vivo
Pons [44] = assay: Drug uptake in anesthetized cynomolgus monkey brain pons after 195 mins postinjection; format: ADME, organism-based, Macaca fascicularis; conditions: in vivo, 3.25 h
Medulla [45] = assay: Drug uptake in anesthetized cynomolgus monkey brain medulla after 6.5 mins postinjection; format: ADME, organism-based, Macaca fascicularis; conditions: in vivo
Thalamus [46] = assay: Drug uptake in anesthetized cynomolgus monkey brain thalamus after 75 mins postinjection; format: ADME, organism-based, Macaca fascicularis; design: unit not given here; conditions: in vivo, 1.25 h
[47] = Ratio of drug uptake in pons to cerebellum in anesthetized cynomolgus monkey after 195 mins postinjection; format: ADME, organism-based, Macaca fascicularis; conditions: in vivo, 3.25 h
Medulla [48] = assay: Drug uptake in anesthetized cynomolgus monkey brain medulla after 15.5 mins postinjection; format: ADME, organism-based, Macaca fascicularis; conditions: in vivo
Pons [49] = assay: Drug uptake in anesthetized cynomolgus monkey brain pons after 165 mins postinjection; format: ADME, organism-based, Macaca fascicularis; conditions: in vivo, 2.75 h
[50] = Ratio of drug uptake in midbrain to cerebellum in anesthetized cynomolgus monkey after 225 mins postinjection; format: ADME, organism-based, Macaca fascicularis; conditions: in vivo, 3.75 h
Pons [51] = assay: Drug uptake in anesthetized cynomolgus monkey brain pons after 85 mins postinjection; format: ADME, organism-based, Macaca fascicularis; conditions: in vivo
Caudate [52] = assay: Drug uptake in anesthetized cynomolgus monkey brain caudate after 195 mins postinjection; format: ADME, organism-based, Macaca fascicularis, Caudate nucleus; conditions: in vivo, 3.25 h
Medulla [53] = assay: Drug uptake in anesthetized cynomolgus monkey brain medulla after 75 mins postinjection; format: ADME, organism-based, Macaca fascicularis; conditions: in vivo, 1.25 h
[54] = Drug uptake in anesthetized cynomolgus monkey brain cerebellum after 12.5 mins postinjection; format: ADME, organism-based, Macaca fascicularis; conditions: in vivo
Pons [55] = assay: Drug uptake in anesthetized cynomolgus monkey brain pons after 125 mins postinjection; format: ADME, organism-based, Macaca fascicularis; conditions: in vivo
Midbrain [56] = assay: Drug uptake in anesthetized cynomolgus monkey brain midbrain after 195 mins postinjection; format: ADME, organism-based, Macaca fascicularis; conditions: in vivo, 3.25 h
Putamen [57] = assay: Drug uptake in anesthetized cynomolgus monkey brain putamen after 3.5 mins postinjection; format: ADME, organism-based, Macaca fascicularis; conditions: in vivo
Thalamus [58] = assay: Drug uptake in anesthetized cynomolgus monkey brain thalamus after 225 mins postinjection; format: ADME, organism-based, Macaca fascicularis; design: unit not given here; conditions: in vivo, 3.75 h
[59] = Ratio of drug uptake in putamen to cerebellum in anesthetized cynomolgus monkey after 45 mins postinjection; format: ADME, organism-based, Macaca fascicularis; conditions: in vivo, 0.75 h
Midbrain [60] = assay: Drug uptake in anesthetized cynomolgus monkey brain midbrain after 175 mins postinjection; format: ADME, organism-based, Macaca fascicularis; conditions: in vivo
Putamen [61] = assay: Drug uptake in anesthetized cynomolgus monkey brain putamen after 165 mins postinjection; format: ADME, organism-based, Macaca fascicularis; conditions: in vivo, 2.75 h
[62] = Drug uptake in anesthetized cynomolgus monkey brain frontal lobe after 18.5 mins postinjection; format: ADME, organism-based, Macaca fascicularis; conditions: in vivo
Thalamus [63] = assay: Drug uptake in anesthetized cynomolgus monkey brain thalamus after 165 mins postinjection; format: ADME, organism-based, Macaca fascicularis; design: unit not given here; conditions: in vivo, 2.75 h
[64] = Drug uptake in anesthetized cynomolgus monkey brain occipital lobe after 27.5 mins postinjection; format: ADME, organism-based, Macaca fascicularis; conditions: in vivo
Thalamus [65] = assay: Drug uptake in anesthetized cynomolgus monkey brain thalamus after 15.5 mins postinjection; format: ADME, organism-based, Macaca fascicularis; design: unit not given here; conditions: in vivo
Medulla [66] = assay: Drug uptake in anesthetized cynomolgus monkey brain medulla after 12.5 mins postinjection; format: ADME, organism-based, Macaca fascicularis; conditions: in vivo
Caudate [67] = assay: Drug uptake in anesthetized cynomolgus monkey brain caudate after 165 mins postinjection; format: ADME, organism-based, Macaca fascicularis, Caudate nucleus; conditions: in vivo, 2.75 h
[68] = Drug uptake in anesthetized cynomolgus monkey brain frontal lobe after 225 mins postinjection; format: ADME, organism-based, Macaca fascicularis; conditions: in vivo, 3.75 h

Compound `O=C(OCCC[18F])C1C2CCC(CC1c1cccc(/C=C\I)c1)N2` (stereo not drawn) has a Ratio [1] of 1.1, a Drug uptake (Thalamus [2]) of 4.44 and a Ratio [3] of 1. For the same compound, the Drug uptake [4] was 4.01, the Drug uptake (Caudate [5]) was 2.54 and the Drug uptake [6] was 2.55. It also gave a Drug uptake [7] of 2.68, a Drug uptake [8] of 3.88 and a Ratio [9] of 1.9. It also gave a Ratio [10] of 1.1, a Drug uptake (Medulla [11]) of 4.94 and a Drug uptake (Midbrain [12]) of 3.69. The Ratio [13] was 0.9, the Ratio [14] was 1.4 and the Ratio [15] was 1.5. The Ratio [16] was 1, the Drug uptake (Caudate [17]) was 2.46 and the Drug uptake [18] was 0.01. The Drug uptake [19] was 3.35, the Drug uptake [20] was 4.74 and the Drug uptake (Midbrain [21]) was 4.38. It also gave a Drug uptake (Caudate [22]) of 1.55, a Drug uptake (Medulla [23]) of 3.6 and a Drug uptake (Putamen [24]) of 3.02. The Drug uptake [25] was 2.37, the Drug uptake (Thalamus [26]) was 3.75 and the Drug uptake (Midbrain [27]) was 4.97. The Ratio [28] was 0.9, the Drug uptake (Midbrain [29]) was 4.55 and the Ratio [30] was 1.5. For the same compound, the Drug uptake [31] was 4.74, the Drug uptake (Pons [32]) was 4.5 and the Drug uptake (Caudate [33]) was 3.34. The Drug uptake (Putamen [34]) was 4.44, the Drug uptake (Midbrain [35]) was 0.98 and the Drug uptake [36] was 1.12. The Drug uptake (Caudate [37]) was 4.05, the Ratio [38] was 1.3 and the Drug uptake (Putamen [39]) was 3.75. It also gave a Drug uptake (Pons [40]) of 2.85, a Drug uptake (Pons [41]) of 0.21 and a Drug uptake (Thalamus [42]) of 1.44. It also gave a Ratio [43] of 1.8, a Drug uptake (Pons [44]) of 3.26 and a Drug uptake (Medulla [45]) of 3.75. For the same compound, the Drug uptake (Thalamus [46]) was 4.76, the Ratio [47] was 1.5 and the Drug uptake (Medulla [48]) was 4.36. For the same compound, the Drug uptake (Pons [49]) was 3.73, the Ratio [50] was 2 and the Drug uptake (Pons [51]) was 4.12. It also gave a Drug uptake (Caudate [52]) of 2.74, a Drug uptake (Medulla [53]) of 5.16 and a Drug uptake [54] of 4.52. The Drug uptake (Pons [55]) was 3.82, the Drug uptake (Midbrain [56]) was 3.85 and the Drug uptake (Putamen [57]) was 1.59. For the same compound, the Drug uptake (Thalamus [58]) was 2.83, the Ratio [59] was 1.1 and the Drug uptake (Midbrain [60]) was 4.1. For the same compound, the Drug uptake (Putamen [61]) was 3.74, the Drug uptake [62] was 2.5 and the Drug uptake (Thalamus [63]) was 3.67. It also gave a Drug uptake [64] of 4, a Drug uptake (Thalamus [65]) of 4.11 and a Drug uptake (Medulla [66]) of 4.73. For the same compound, the Drug uptake (Caudate [67]) was 3.04 and the Drug uptake [68] was 1.82.
